Test results reported in patent publication US20050004130A1, “New metabotropic glutamate receptor compounds” (AstraZeneca and NPS Pharmaceuticals, Inc., priority 2003, published 2005).

How the values were obtained:
human mGluR5d = target: T1, human mGluR5d (Homo sapiens, UniProt P41594); test: Assay of Group I receptor antagonist activity (FLIPR [Ca2+]i mobilization; secondary IP3 turnover) in cells expressing mGluR5d; type: cell-based; conditions: read-out: mGluR5 IC50
T1 construct: expressed in transfected cells
Protocol: (§1) For FLIPR analysis, cells expressing human mGluR5d or recombinant mGluR1 as described in WO97/05252 were seeded on collagen coated clear bottom 96-well plates with black sides and analysis of [Ca^2+]i mobilization was done 24 h after seeding. FLIPR experiments were done using a laser setting of 0.800 W and a 0.4 second CCD camera shutter speed. Each FLIPR experiment was initiated with 160 μl of buffer present in each well of the cell plate. After each addition of the compound, the fluorescence signal was sampled 50 times at 1 second intervals followed by 3 samples at 5 second intervals. Responses were measured as the peak height of the response within the sample period. EC50 and IC50 determinations were made from data obtained from 8-point concentration response curves (CRC) performed in duplicate. Agonist CRC were generated by scaling all responses to the maximal response observed for the plate. […]
(§2) We have validated a secondary functional assay for mGluR5d or recombinant mGluR1 as described in WO97/05252 based on Inositol Phosphate (IP3) turnover. IP3 accumulation is measured as an index of receptor mediated phospholipase C turnover. […] Antagonist activity was determined by pre-incubating test compounds for 15 min, then incubating in the presence of glutamate (80 μM) or DHPG (30 μM) for 30 min. […]

recombinant mGluR1 = target: T2, recombinant mGluR1 (Homo sapiens, UniProt Q13255); test: Assay of Group I receptor antagonist activity (FLIPR [Ca2+]i mobilization; secondary IP3 turnover) in cells expressing mGluR1; type: cell-based
T2 construct: expressed in transfected cells
Protocol: as §1, §2

T1 sequence (P41594 21-942 isoform P41594-3 limits assumed): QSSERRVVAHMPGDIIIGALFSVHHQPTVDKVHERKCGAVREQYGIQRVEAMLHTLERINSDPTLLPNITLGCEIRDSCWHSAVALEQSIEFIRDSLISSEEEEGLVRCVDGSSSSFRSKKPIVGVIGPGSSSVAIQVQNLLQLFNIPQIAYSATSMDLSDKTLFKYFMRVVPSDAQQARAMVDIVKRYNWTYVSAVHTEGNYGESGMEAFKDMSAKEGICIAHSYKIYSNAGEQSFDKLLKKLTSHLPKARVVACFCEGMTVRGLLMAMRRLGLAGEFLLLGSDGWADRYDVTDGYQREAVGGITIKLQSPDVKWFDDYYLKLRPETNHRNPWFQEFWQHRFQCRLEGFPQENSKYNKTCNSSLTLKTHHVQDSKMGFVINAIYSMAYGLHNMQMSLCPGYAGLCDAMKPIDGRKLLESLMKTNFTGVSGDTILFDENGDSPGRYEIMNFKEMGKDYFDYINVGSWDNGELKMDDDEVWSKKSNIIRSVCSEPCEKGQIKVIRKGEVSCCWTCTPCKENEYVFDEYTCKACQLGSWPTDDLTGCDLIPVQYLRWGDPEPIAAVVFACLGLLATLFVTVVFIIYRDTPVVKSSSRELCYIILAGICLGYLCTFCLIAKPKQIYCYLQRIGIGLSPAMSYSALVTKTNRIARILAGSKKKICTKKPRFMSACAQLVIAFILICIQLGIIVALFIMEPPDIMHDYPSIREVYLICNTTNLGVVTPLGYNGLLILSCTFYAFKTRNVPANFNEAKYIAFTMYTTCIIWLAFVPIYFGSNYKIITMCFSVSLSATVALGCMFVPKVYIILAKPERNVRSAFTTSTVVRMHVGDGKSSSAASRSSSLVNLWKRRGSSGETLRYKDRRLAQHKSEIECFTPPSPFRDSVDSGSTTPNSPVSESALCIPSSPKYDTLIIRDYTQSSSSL
T2 sequence (Q13255 19-1194): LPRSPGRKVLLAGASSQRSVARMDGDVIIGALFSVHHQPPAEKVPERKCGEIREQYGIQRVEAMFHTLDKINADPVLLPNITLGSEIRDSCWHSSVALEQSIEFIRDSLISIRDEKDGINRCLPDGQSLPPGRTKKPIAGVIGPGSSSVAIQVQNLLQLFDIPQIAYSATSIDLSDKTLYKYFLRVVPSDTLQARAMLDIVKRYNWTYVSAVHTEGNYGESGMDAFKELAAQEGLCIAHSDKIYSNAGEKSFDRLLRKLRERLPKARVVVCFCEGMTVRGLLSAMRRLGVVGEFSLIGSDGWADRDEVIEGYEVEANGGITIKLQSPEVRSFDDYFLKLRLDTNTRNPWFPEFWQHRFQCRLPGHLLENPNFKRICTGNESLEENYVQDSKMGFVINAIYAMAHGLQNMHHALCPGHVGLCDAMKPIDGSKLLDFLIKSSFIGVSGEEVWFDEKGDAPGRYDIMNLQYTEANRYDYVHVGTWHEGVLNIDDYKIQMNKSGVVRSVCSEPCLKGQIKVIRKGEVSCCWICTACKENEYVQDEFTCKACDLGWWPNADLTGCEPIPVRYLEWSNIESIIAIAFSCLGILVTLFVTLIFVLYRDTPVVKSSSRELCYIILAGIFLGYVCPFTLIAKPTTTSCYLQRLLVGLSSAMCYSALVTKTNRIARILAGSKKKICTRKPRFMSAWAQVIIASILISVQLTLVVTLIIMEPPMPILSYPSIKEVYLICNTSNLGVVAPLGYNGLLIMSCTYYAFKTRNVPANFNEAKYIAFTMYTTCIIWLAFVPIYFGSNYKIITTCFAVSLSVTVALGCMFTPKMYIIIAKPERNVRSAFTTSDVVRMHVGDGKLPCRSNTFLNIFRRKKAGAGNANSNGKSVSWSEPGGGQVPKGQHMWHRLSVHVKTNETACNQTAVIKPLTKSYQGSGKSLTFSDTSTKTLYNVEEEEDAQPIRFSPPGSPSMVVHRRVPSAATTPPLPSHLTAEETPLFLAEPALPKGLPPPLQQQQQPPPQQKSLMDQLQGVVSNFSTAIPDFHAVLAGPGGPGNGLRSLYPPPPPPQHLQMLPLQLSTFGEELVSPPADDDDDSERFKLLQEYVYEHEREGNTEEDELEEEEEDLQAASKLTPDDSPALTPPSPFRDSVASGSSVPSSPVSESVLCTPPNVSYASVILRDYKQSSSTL

Q: With `CC1CCc2nc(C(=O)N[C@H]3CC[C@H](C)CC3)cnc2C1` (relative stereo) [6-methyl-N-(trans-4-methylcyclohexyl)-5,6,7,8-tetrahydroquinoxaline-2-carboxamide] as the compound, how does the IC50 (human mGluR5d) read?
A: 7.29 µM

Q: What about the IC50 (recombinant mGluR1) of the same compound?
A: 0.052 µM
